Laboratory results as given in patent US20100004253A1, “BIOMARKERS OF TARGET MODULATION, EFFICACY, DIAGNOSIS AND/OR PROGNOSIS FOR RAF INHIBITORS” (Novartis AG, priority 2006, published 2010).

Legend:
A375M xenograft = experiment: Mutant B-Raf xenograft model; format: in vivo
MEXF276 xenograft = experiment: Mutant B-Raf xenograft model; format: in vivo
HT29 xenograft = experiment: Mutant B-Raf xenograft model; format: in vivo
HCT116 xenograft = experiment: K-Ras driven xenograft model; format: in vivo
Text: […]. […] […].

[1] = test system: A375M melanoma xenograft tumors; experiment: mRNA microarray profiling of A375M xenograft tumors; format: in vivo, mice; details: 100 mg/kg orally every other day; 783 probesets; Table IX
SKMEL28 = details: SKMEL28, mutant B-Raf cell line
A2058 = details: A2058, mutant B-Raf cell line
G361 = details: G361, mutant B-Raf cell line
COLO205 = details: COLO205, mutant B-Raf cell line
SKMEL31 = details: SKMEL31, mutant B-Raf cell line
MALME-3M = details: mutant B-Raf cell line
SW620 = details: SW620, K-Ras cell line
SKMEL2 = details: SKMEL2, N-Ras cell line
[2] = test system: MEK target phosphorylation and signaling molecules downstream from Raf (BIM, Cyclin D1, p27Kip, pAKT); details: preclinical models

For Cn1c(Nc2ccc(C(F)(F)F)cc2)nc2cc(Oc3ccnc(-c4ncc(C(F)(F)F)[nH]4)c3)ccc21 [CHIR-265, {1-Methyl-5-[2-(5-trifluoromethyl-1H-imidazol-2-yl)-pyridin-4-yloxy]-1H benzoimidazol-2-yl}-(4-trifluoromethyl-phenyl)-amine], the effect on tumor (A375M xenograft) was “tumor regression”, the effect on tumor (MEXF276 xenograft) was “tumor regression” and the effect on tumor (HT29 xenograft) was “tumor regression”. For the same molecule, the effect on tumor (HCT116 xenograft) was “tumor growth inhibition”, the “number of genes significantly differential, alternate analysis method (six queries, p<0.005)” value [1] was 609 genes and the “inhibition of the Raf pathway” value (SKMEL28) was “inhibition of the Raf pathway”. For the same molecule, the “inhibition of the Raf pathway” value (A2058) was “inhibition of the Raf pathway”, the “inhibition of the Raf pathway” value (G361) was “inhibition of the Raf pathway” and the “inhibition of the Raf pathway” value (COLO205) was “inhibition of the Raf pathway”. For the same molecule, the “inhibition of the Raf pathway” value (SKMEL31) was “inhibition of the Raf pathway”, the “inhibition of the Raf pathway” value (MALME-3M) was “inhibition of the Raf pathway” and the “inhibition of the Raf pathway” value (SW620) was “inhibition of the Raf pathway”. For the same molecule, the “inhibition of the Raf pathway” value (SKMEL2) was “inhibition of the Raf pathway” and the “inhibition of MEK target phosphorylation and signaling molecules downstream from Raf in the MAPK pathway” value [2] was “dose and time dependent inhibition”.
